Format in all cases: cell-based, human
Experiment [1] deals with HepG2 cells. The experiment is described as follows: Proliferation inhibition, CellTiter-Glo, HepG2. Conditions: Table D-1, HepG2 (NRAS-Q61L), 3 days, read-out: Prolif. (proliferation EC50). The protocol: (§1) All cancer cell lines (A375, A101D, A2058, RKO, HT29 SK-MEL 30, IPC298, HepG2, HCT-116, Lovo, SW620, SW480, NCI-H358, NCI-H2122, Calu-6, NCIH2087, NCIH1755, NCIH1666 and Mewo) were obtained from ATCC and cultured in RPM1-1640 medium (Gibco) supplemented with 5% heat inactivated fetal bovine serum (FBS, Wisent) at 37° C. under 5% CO2. Cells were maintained in T175 flasks (Greiner). They were passaged by removing the culture medium, washing once in 10 mL of room temperature Phosphate Buffered Saline (PBS; Wisent) and incubating at 37° C. with 2 mL of 0.05% Trypsin (Thermo-Fisher). Trypsin was then inactivated by adding complete growth medium and the cells were then replated in a T175 culture dish at the appropriate dilution. All cell lines were routinely tested for mycoplasma contamination. Tissue type and mutational status of each cell line can be found in Table B.
(§2) CellTiter-Glo® viability analysis was conducted on cells plated in 100 μL of complete RPMI-1640 growth medium in 96-well flat-bottomed white opaque plates (Greiner or Croning) at a density indicated in Table E (for each CCL, number of cells plated per well of a 96-well plate to perform the CellTiter-Glo® cell viability assay). The cell density in cells/cm^2 would correspond to cell number divided by the area of one well of a 96-well plate (0.32 cm^2). […]
(§3) After 3 days of incubation, the growth media were removed by aspiration and 60 μL of diluted CellTiter-Glo® reagent (10 μL CellTiter-Glo® reagent+50 μL of PBS) was added to each well. […] Luminescence signals were then acquired on a Synergy Neo2 plate reader (Biotek).
(§4) The effect of each compound dilution on the proliferation of cancer cell lines was expressed in % inhibition and calculated as follows. […]
(§5) The ability of each compound to inhibit proliferation was expressed as a EC50 value obtained by plotting the effect values for each data point of a dilution series and fitting the obtained curves using a log(agonist) versus response—variable slope (four parameters) function using GraphPadPrism (V7.0) or Dotmatics Screening Ultra platform.
For orientation: ATP-based viability assays read luminescence as a measure of living cells.

Experiment [2] has as its system pERK, Lovo cells. Description: Phospho-ERK inhibition, AlphaLISA p-ERK 1/2, Lovo. As to conditions: Table D-2; for IC50: Lovo (KRAS-G13D); for pERK value in parentheses, % inhibition (Ymin): Lovo, lowest point of IC50 curve. The method, then: as §1
(c) Measurement of Phospho-ERK Inhibition in Cultivated Human Cancer Cell Lines by the AlphaLISA® SureFire® Ultra™ p-ERK 1/2 (Thr2O2/Tyr204)
AlphaLISA® SureFire® Ultra™ p-ERK 1/2 (Thr202/Tyr204) analysis was conducted on cells plated in 100 μL of complete RPMI-1640 growth medium in 96-well flat-bottomed transparent dishes (Costar) at a density indicated in Table C. Cells were maintained overnight at 37° C. under 5% CO2 before treatment with compounds' dilution series for one hour. The cell density in cells/cm^2 corresponds to cell number divided by the area of one well of a 96-well plate (0.143 cm^2).
In a dilution series 100 μL/well of test substance dilution prepared in complete RPMI-1640 growth media was added to the cells. The dilution series is selected so that ten concentrations cover a range from 10 μM to 0.33 nM. If necessary, the initial concentration of 10 μM is increased to 100 μM or lowered to 1 μM (as in the case of A375 and H1666 cells, which are generally more sensitive to the compounds) and further dilution is carried out accordingly. The final concentration of DMSO in the assay is set at 0.5%.
After treatment, media was removed, and cells were lysed in 50 μL of 1× AlphaScreen Ultra Lysis Buffer (Perkin Elmer). The AlphaLISA® SureFire® Ultra™ p-ERK 1/2 (Thr202/Tyr204) (PerkinElmer) reactions were performed with 5 μL of cell lysate according to the manufacturer's specifications in 384-well proxyplates (Perkin Elmer) followed by overnight incubation of the reactions at room temperature in a humidified chamber. After completion of the reactions, the signals were recorded on an EnVision plate reader (Perkin Elmer) using built in AlphaLISA® settings.
The effect of each compound dilution on the pERK signal was expressed in % inhibition and calculated as follows. An internal 100% inhibition control (1 μM trametinib, cat. No. HY-10999; MedChem Express; CAS No. 871700-17-3) was included in each plate and used as a measure of pERK background. First, the value obtained for trametinib was subtracted from each data point. The average of DMSO (vehicle) controls (set as 0% inhibition) was established and used to calculate % inhibition:
The ability of each compound to inhibit pERK signal was expressed as an IC50 value obtained by plotting the inhibition values for each data point of a dilution series and fitting the obtained curves using a log(agonist) versus response—variable slope (four parameters) function using GraphPadPrism (V7.0) or Dotmatics Screening Ultra platform.
When present, paradoxical pERK induction is inferred from the negative % inhibition values observed in the pERK IC50 curves of a compound.
(In general: Alpha assays give light when donor and acceptor beads are brought close together.)

The test system of experiment [3] is RKO cells. Description: Proliferation inhibition, CellTiter-Glo, RKO. As to conditions: Table D-1, RKO (BRAF V600E), 3 days, read-out: Prolif. (proliferation EC50). The protocol:
as §1, §2, §3, §4, §5

In experiment [4] the test system is HT-29 cells. The experiment is described as follows: Proliferation inhibition, CellTiter-Glo, HT-29. As to conditions: Table D-1, HT-29 (BRAF V600E), 3 days, read-out: Prolif. (proliferation EC50). The method, then: as §1, §2, §3, §4, §5
Experiment [5] has as its system HCT116 cells. The experiment is described as follows: Proliferation inhibition, CellTiter-Glo, HCT116. Conditions: Table D-1, HCT116 (KRAS G13D), 3 days, read-out: Prolif. (proliferation EC50). The method, then:
as §1, §2, §3, §4, §5

These results are taken from patent US20260137697A1, “THIAZOLO[5,4-D]PYRIMIDINE COMPOUNDS, COMPOSITIONS COMPRISING THEM AND USES THEREOF” (University de Montreal, priority 2022, published 2026).

Like-named read-outs stand apart in the source and are kept apart here.

In general, IC50 refers to the concentration that inhibits the measured activity by half. A low value points to inhibition by little substance.

As to `Cc1ccc2c(Nc3cccc(Cl)c3F)nccc2c1NC(=O)c1csc2c(N)ncnc12` [Belvarafenib, reference compound], the EC50 in experiment [1] (Homo sapiens, 72 h) is < 300 nM; in experiment [3] (Homo sapiens, 72 h), < 300 nM; in experiment [4] (Homo sapiens, 72 h), < 300 nM; in experiment [5] (Homo sapiens, HCT-116, 72 h), 300 to 3000 nM. Moreover, in experiment [2] (Homo sapiens), the concentration for half-maximal inhibition (IC50) is < 30 nM. Also, the “pERK value in parentheses, % inhibition (Ymin)” value (“pERK value … % inhibition (Ymin)” for short) in experiment [2] is “(−12) %”.
For `Cc1c(F)cccc1S(=O)(=O)Nc1ccc(F)c(Nc2ncnc3sc(-n4cc(C(=O)N5C6CCC5CN(C)C6)c5ccccc54)nc23)c1F` [Example 44], the EC50 in experiment [1], in experiment [3], in experiment [4] and in experiment [5] was < 300 nM throughout. Besides, the IC50 in experiment [2] lay within 30 to 300 nM. Further, the “pERK value … % inhibition (Ymin)” value in experiment [2] is listed as “(−10) %”.
Take `N#CC1(c2cccc3c2ncn3-c2nc3c(Nc4c(F)ccc(NS(=O)(=O)c5cccc(Cl)c5Cl)c4F)ncnc3s2)CC1` [Example 122]: the EC50 in experiment [1], in experiment [3], in experiment [4] and in experiment [5] was < 300 nM each time. Further, the IC50 in experiment [2] was in the range of 30 to 300 nM. Also, in experiment [2], the “pERK value … % inhibition (Ymin)” value is “(13) %”.
